Data set [1] in a line: Reducing power assay (reduction of Iron-III to Iron-II). In kind it is biochemical.
Protocol: The assay is based on the reduction of Iron-III to Iron-II. Results are expressed as % reduction when compared to the control which reduced all Iron-III at a concentration of 5 mg/mL.
Data set [2] in a line: Stability in CaCo-2 incubation medium (Free and Total LA/DHLA in medium). In kind it is in vitro ADME. To be noted: for Total LA in medium (after NaBH4 reduction) / Free LA in medium: 1 mg LA/ml or 1.46 mg LAORN/ml medium. How it is done:
For stability investigations, the incubation medium was incubated at 37° C. for 1 hour. Thereafter, the medium was centrifuged and used for further analysis.

Data set [3] is described as follows: Inhibition of the autooxidation of linoleic acid. Format: biochemical. To be noted: 50° C., up to 72 hours. The protocol: As a positive control (full inhibition) 10 mM butyl-hydroxytoluene (BHT)/L was introduced. Each sample was prepared in 3 replicates. […] Each sample was prepared in 3 replicates. Samples were incubated with light protection at 50° C.
The next data set deals with CaCo-2 cells. As to the kind of experiment: CACO-2 absorption test (Free and Total LA/DHLA in cells). Format: in vitro ADME.
Data set [4] can be described thus: Protection of lutein esters, milling/mixing method, 60° C. for 4 hours. In kind it is physicochemical. To be noted: mix method. How it is done:
300 mg lutein esters and 30 mg α-Tocopherol were added to a mortar, completely milled and maintained at a temperature of 60° C. for 4 hours. The lutein content was measured with the UV-Visible spectrophotometric method as described above. […] The lutein content was measured with a UV-Visible spectrophotometer as described above. 300 mg lutein esters and a predetermined amount of lipoic acid were placed in a mortar, milled and then subjected to an elevated temperature of 60° C. for 4 hours. The lutein content was determined by the UV-Visible spectrophotometric method described above.

Structures are written as SMILES.

As for `[BH4-].[Na+]` [Control, NaBH4], the “% Reduction compared to Control” value in data set [1] (Conc. 1 mg/mL) is listed as 22.7%; in data set [1] (Conc. 5 mg/mL), 100.0%; in data set [1] (Conc. 10 mg/mL), 100.0%.
Take `O=C(O)CCCCC1CCSS1` (stereo not drawn) [LA, 1,2-dithiolane-3-pentanoic acid]: the “% Reduction compared to Control” value in data set [1] (Conc. 1 mg/mL) was found to be 7.2%; in data set [1] (Conc. 5 mg/mL), 22.2%; in data set [1] (Conc. 10 mg/mL) it was 24.7%. The “Total LA in medium (after NaBH4 reduction)” value in data set [2] (60 min) and in data set [2] (Initial) was “bld” each time. Further, the “Free LA in medium” value in data set [2] (60 min, 37° C.) was found to be 0.74 mg/mL; in data set [2] (Initial), 0.89 mg/mL. Moreover, in data set [2] (incubation medium, 37° C., 1 hour, recovery after reduction to DHLA), the “stability under the test assay conditions” value was “stable”. The “protection against autooxidation of linoleic acid” value in data set [3] (FIG. 7: 5 mM LA/L, 5 mM ORN/L, 5 mM LA/L + 5 mM ORN/L, 10 mM LAORN/L) is “full protection”; in data set [3] (FIG. 8: 50 mM LA/L, 50 mM ORN/L, 50 mM LA/L + 50 mM ORN/L, 100 mM LAORN/L) it was “full protection”. Besides, the “Total LA in cells (after NaBH4 reduction)” value in the data set on CaCo-2 cells (CaCo-2 cells incubated 30 min) and with CaCo-2 cells (CaCo-2 cells incubated 60 min) was “bld” each time. Besides, the “Residual Ratio/% of lutein esters” value is 42.7% in data set [4] (300 mg lutein esters, Dosage of LA 3 mg, Content of LA 1.0%); 46.5% in data set [4] (Dosage of LA 15 mg, Content of LA 4.8%); 79.5% in data set [4] (Dosage of LA 30 mg, Content of LA 9.1%); 80.1% in data set [4] (Dosage of LA 60 mg, Content of LA 16.7%); 79.4% in data set [4] (Dosage of LA 150 mg, Content of LA 33.3%); 82.4% in data set [4] (Dosage of LA 300 mg, Content of LA 50.0%).

For the origin of these results see US8278358B2, “Lipoic acid derivatives” (Omnica GmbH, priority 2006, dated 2012).
